The target in one test is MYLK (Homo sapiens, UniProt Q15746). Briefly: MYLK assay (LanthaScreen Eu Kinase Binding Assay). The procedure: In the assay LanthaScreen™ Eu Kinase Binding Assay by Invitrogen Corporation (Carlsbad) the effect of invention of a compound on the phosphorylation is determined by measurement of fluorescence intensity emission ratio based on the binding and displacement of a proprietary, Alexa Fluor® 647-labeled, ATP-competitive kinase inhibitor scaffold (kinase tracer) to the kinase of interest as described above.
MYLK, sequence (Q15746 whole entry): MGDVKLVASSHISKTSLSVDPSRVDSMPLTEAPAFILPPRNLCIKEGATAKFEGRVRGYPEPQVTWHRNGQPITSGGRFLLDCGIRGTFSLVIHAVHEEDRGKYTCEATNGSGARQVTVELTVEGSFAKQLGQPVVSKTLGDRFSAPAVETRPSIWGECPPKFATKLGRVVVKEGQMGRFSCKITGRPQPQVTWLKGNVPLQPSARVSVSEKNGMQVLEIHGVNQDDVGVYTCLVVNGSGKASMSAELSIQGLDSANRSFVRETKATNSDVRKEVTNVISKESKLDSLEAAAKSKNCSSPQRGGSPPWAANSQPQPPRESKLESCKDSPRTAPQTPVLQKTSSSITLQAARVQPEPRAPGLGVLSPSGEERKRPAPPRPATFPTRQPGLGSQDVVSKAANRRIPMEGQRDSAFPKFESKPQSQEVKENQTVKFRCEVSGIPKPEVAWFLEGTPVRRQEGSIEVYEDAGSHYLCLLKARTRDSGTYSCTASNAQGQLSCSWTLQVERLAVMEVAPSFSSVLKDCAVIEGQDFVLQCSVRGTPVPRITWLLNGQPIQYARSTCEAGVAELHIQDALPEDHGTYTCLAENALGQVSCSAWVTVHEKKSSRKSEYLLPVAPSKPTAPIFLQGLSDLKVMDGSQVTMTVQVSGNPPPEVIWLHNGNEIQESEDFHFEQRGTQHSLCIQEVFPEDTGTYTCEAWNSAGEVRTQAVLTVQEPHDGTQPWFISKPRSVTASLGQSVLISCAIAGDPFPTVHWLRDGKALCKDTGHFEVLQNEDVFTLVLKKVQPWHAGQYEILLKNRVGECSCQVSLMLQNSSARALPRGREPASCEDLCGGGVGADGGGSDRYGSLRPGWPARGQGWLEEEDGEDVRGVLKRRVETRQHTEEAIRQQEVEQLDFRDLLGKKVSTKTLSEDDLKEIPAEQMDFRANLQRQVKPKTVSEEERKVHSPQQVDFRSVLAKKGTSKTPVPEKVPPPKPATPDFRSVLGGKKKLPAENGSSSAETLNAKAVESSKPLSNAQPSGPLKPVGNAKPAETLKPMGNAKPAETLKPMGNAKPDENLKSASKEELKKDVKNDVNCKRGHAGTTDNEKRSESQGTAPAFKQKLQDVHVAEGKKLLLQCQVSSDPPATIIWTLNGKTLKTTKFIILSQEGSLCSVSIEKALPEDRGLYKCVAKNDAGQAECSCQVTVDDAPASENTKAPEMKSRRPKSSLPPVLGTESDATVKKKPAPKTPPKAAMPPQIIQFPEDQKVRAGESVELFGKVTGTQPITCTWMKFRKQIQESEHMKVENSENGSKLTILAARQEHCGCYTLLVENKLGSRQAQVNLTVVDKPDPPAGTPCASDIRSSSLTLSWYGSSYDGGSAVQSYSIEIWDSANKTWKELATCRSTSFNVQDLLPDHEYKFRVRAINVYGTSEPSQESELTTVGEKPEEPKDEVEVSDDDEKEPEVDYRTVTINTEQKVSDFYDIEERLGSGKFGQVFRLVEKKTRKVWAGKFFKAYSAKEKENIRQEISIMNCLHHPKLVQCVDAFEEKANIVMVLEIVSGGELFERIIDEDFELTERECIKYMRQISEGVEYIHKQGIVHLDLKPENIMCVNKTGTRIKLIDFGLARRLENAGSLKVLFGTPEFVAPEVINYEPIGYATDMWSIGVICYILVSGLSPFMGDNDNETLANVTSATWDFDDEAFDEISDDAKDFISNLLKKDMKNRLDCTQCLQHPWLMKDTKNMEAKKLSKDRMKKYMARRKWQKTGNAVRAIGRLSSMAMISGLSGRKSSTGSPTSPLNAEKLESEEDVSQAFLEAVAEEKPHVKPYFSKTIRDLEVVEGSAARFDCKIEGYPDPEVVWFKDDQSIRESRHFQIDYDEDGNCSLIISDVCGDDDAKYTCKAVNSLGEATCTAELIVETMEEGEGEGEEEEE
To the wells of an 384 well small volume plate (Greiner, Frickenhausen) are added (i) the compound under test in 5% DMSO/distilled water (5 μl), (ii) 5 μl of the kinase antibody mixture resulting in a final concentration 5 nM MYLK, 2 nM EU-Anti-GST antibody in 1× kinase buffer A. The reaction was started with addition of (iii) 5 μl resulting in a final concentration of 30 nM tracer 236. The assay plate was incubated at RT for 1 h and fluorescence intensitiy readings were collected using a TECAN M1000 at two wavelengthes of λex 340/λem 615 nm and λex 340/λem 665 nm with a delay time of 100 μs and an integration time of 200 μs after 60 minutes. The emission ratio was calculated by division of the acceptor/tracer emission ([…]) by the antibody/donor emission ([…]). The inhibitor concentration was plotted versus the emission ratio to determine the IC50 using XLFit 5.0 (IDBS, Guildford) to fit to a sigmoidal dose response curve with a variable slope.
On the technique in general: Time-resolved FRET reads energy transfer from a long-lived donor to a nearby acceptor.

A further test deals with T1, SYK kinase (Homo sapiens, UniProt P43405).
T1 construct: purchased Invitrogen, Carlsbad
Briefly: SYK assay (OMNIA Kinase Assay, Invitrogen). In kind it is biochemical. To be noted: apparent Ki calculated from the IC50 using the Cheng-Prusoff equation; 1 mM ATP, 10 μM Peptide Substrate; read-out: SYK Activities: Ki. In short, it runs like this: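 Continuous SOX-fluorescence (Omnia) readout of Tyr 7 peptide (10 μM) phosphorylation with 1 mM ATP and 0.2 mM DTT at 30° C, started by SYK addition. Fluorescence (λex 360/λem 485 nm) was read every 30 s for 30 min. IC50 from velocity vs concentration; apparent Ki via Cheng-Prusoff.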

The target in another test is LRRK2 (Homo sapiens, UniProt Q5S007). Briefly: LRRK2 assay (LanthaScreen Eu Kinase Binding Assay). In short, it runs like this:
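Kinase binding was detected by europium anti-tag antibody FRET with a competing tracer, so inhibitor binding lowers the FRET signal. IC50 came from a variable-slope sigmoidal fit of emission ratio against inhibitor concentration.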

Setting [1] is: 5 nM MYLK, 30 nM tracer 236, RT 1 h, read-out: MYLK Activites: IC50.
Setting [2] is: 5 nM LRRK2, 10 nM tracer 236, RT 1 h, read-out: LRRK2 Activites: IC50.

pIC50, pKi: −log10 of the molar value. Like-named read-outs stand apart in the source and are kept apart here.

LRRK2, sequence (Q5S007 970-2527 limits assumed): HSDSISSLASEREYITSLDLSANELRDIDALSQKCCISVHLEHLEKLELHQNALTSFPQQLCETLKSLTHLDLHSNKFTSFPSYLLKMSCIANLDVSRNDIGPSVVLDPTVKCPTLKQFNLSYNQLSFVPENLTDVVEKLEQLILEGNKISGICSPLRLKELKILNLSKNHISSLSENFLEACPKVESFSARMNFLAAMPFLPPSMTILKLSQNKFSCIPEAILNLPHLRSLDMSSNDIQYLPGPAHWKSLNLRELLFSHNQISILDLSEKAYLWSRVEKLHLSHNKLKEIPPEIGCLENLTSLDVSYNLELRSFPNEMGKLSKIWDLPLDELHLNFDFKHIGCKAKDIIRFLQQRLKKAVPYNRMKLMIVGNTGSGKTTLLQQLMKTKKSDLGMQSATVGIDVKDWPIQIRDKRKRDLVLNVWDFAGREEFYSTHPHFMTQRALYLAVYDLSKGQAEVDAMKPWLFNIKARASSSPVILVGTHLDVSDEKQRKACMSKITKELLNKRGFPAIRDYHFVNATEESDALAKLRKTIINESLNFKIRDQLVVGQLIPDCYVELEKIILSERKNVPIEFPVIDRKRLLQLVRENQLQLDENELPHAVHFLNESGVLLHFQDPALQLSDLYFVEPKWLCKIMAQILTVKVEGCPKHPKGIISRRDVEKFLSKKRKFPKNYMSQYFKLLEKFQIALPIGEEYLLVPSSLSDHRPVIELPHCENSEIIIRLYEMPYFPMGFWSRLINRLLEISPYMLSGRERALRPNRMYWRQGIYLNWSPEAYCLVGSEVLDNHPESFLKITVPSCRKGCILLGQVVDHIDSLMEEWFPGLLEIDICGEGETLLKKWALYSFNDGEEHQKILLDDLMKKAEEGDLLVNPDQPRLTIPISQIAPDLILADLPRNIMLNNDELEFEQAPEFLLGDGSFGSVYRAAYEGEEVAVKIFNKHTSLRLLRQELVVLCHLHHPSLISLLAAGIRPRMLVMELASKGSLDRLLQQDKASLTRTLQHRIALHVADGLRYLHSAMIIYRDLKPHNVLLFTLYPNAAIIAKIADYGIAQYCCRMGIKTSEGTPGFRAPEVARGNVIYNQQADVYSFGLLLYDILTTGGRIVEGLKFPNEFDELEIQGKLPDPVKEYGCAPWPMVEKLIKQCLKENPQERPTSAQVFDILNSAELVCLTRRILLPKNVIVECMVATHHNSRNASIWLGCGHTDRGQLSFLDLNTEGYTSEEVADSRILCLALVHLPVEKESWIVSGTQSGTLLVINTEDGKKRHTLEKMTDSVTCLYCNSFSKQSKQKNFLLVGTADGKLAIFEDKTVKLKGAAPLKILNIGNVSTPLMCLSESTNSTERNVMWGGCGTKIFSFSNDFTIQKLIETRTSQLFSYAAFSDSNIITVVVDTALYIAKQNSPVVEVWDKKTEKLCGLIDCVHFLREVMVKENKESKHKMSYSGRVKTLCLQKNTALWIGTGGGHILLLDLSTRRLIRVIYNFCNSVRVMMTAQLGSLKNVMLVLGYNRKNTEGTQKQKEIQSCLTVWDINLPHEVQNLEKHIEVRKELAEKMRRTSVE

For the compound `O=C(c1ccc(Nc2nc3ccc(F)cc3c3cn[nH]c23)cc1)N1CCCC1` [Example #322, (4-((8-fluoro-3H-pyrazolo[3,4-c]quinolin-4-yl)amino)phenyl) (pyrrolidin-1-yl)methanone], the pIC50 (commonly the IC50 on a negative log10 scale, so that one unit is a factor of ten) on MYLK (setting [1]) was above 5.30.

Regarding `COc1cccc2c1nc(Nc1ccc(CN3CCN(C)CC3)cc1)c1n[nH]cc12` [Example #278, (6-Methoxy-2H-pyrazolo[3,4-c]quinolin-4-yl)-[4-(4-methyl-piperazin-1-ylmethyl)-phenyl]-amine], the pKi (commonly the Ki on a negative log10 scale, so that one unit is a factor of ten) on SYK kinase was 6.00 to 7.00. For the same compound, the pIC50 at MYLK (setting [1]) was above 5.30.

In the case of `COc1ccc(Nc2nc3ccc(I)cc3c3cn[nH]c23)cc1OC` [Example #354, N-(3,4-dimethoxyphenyl)-8-iodo-3H-pyrazolo[3,4-c]quinolin-4-amine], the pKi on SYK kinase is 6.00 to 7.00. Moreover, the pIC50 at MYLK (setting [1]) is above 5.30.

As to `COc1ccc2nc(Nc3nccc(N)n3)c3n[nH]cc3c2c1` [Example #139, N2-(8-methoxy-2H-pyrazolo[3,4-c]quinolin-4-yl)pyrimidine-2,4-diamine], the pKi on SYK kinase was 6.00 to 7.00. Moreover, the pIC50 on MYLK (setting [1]) was above 5.30.

For the compound `O=C1COc2ccc(Nc3nc4ccc(Br)cc4c4c[nH]nc34)cc2N1` [Example #116, 6-(8-Bromo-2H-pyrazolo[3,4-c]quinolin-4-ylamino)-4H-benzo[1,4]oxazin-3-one], at MYLK (setting [1]), the pIC50 is above 5.30.

In the case of `COc1ccc2nc(Nc3ccc(N4CCS(=O)(=O)CC4)cc3)c3n[nH]cc3c2c1` [Example #292, 4-(4-((8-methoxy-2H-pyrazolo[3,4-c]quinolin-4-yl)amino)phenyl)thiomorpholine 1,1-dioxide], at SYK kinase, the pKi was above 8.00. The pIC50 at MYLK (setting [1]) is above 5.30.

With `COc1ccc2nc(Nc3cccc(S(=O)(=O)C(F)(F)F)c3)c3n[nH]cc3c2c1` [Example #350, 8-methoxy-N-(3-((trifluoromethyl)sulfonyl)phenyl)-2H-pyrazolo[3,4-c]quinolin-4-amine], the pKi on SYK kinase is 6.00 to 7.00. For the same compound, on MYLK (setting [1]), the pIC50 was above 5.30.

With `COc1ccc2c(c1)nc(Nc1ccc3[nH]cnc3c1)c1n[nH]cc12` [Example #263, (1H-Benzoimidazol-5-yl)-(7-methoxy-2H-pyrazolo[3,4-c]quinolin-4-yl)-amine], on SYK kinase, the pKi was above 8.00. The pIC50 at MYLK (setting [1]) is above 5.30.

Regarding `COc1ccc2nc(Nc3cccc(C(=O)O)c3)c3n[nH]cc3c2c1` [Example #287, 3-((8-methoxy-2H-pyrazolo[3,4-c]quinolin-4-yl)amino)benzoic acid], the pKi on SYK kinase is 6.00 to 7.00. The negative logarithm of the IC50 (pIC50) at MYLK (setting [1]) was above 5.30.

For `COc1ccc2nc(Nc3ccc(C(=O)N4CCC(N(C)C)C4)cc3)c3n[nH]cc3c2c1` (stereo not drawn) [Example #307, (3-(dimethylamino)pyrrolidin-1-yl)(4-((8-methoxy-2H-pyrazolo[3,4-c]quinolin-4-yl)amino)phenyl)methanone], the pIC50 at LRRK2 (setting [2]) is 6.00 to 7.00; at MYLK (setting [1]), above 5.30.

As for `CN1CCN(c2ccc(Nc3nc4ccc(F)cc4c4cn[nH]c34)cc2)CC1` [Example #326, 8-fluoro-N-(4-(4-methylpiperazin-1-yl)phenyl)-3H-pyrazolo[3,4-c]quinolin-4-amine], the pKi at SYK kinase was 7.00 to 8.00. The pIC50 at MYLK (setting [1]) was above 5.30.

Turning to `COc1ccc2nc(Nc3ccc4c(c3)NC(=O)CO4)c3[nH]ncc3c2c1` [Example #291, 6-((8-methoxy-2H-pyrazolo[3,4-c]quinolin-4-yl)amino)-2H-benzo[b][1,4]oxazin-3(4H)-one], the negative-log Ki (pKi) at SYK kinase was above 8.00. Moreover, the pIC50 on MYLK (setting [1]) is above 5.30.

`COc1ccc2nc(Nc3ccc4ncc(=O)[nH]c4c3)c3n[nH]cc3c2c1` [Example #194, 7-(8-Methoxy-2H-pyrazolo[3,4-c]quinolin-4-ylamino)-1H-quinoxalin-2-one]: on SYK kinase, the pKi was 6.00 to 7.00. In addition, the pIC50 at MYLK (setting [1]) is above 5.30.

Turning to `COc1cccc2c1nc(Nc1ccccc1)c1n[nH]cc12` [Example #261, (6-Methoxy-2H-pyrazolo[3,4-c]quinolin-4-yl)-phenyl-amine], at SYK kinase, the pKi was 7.00 to 8.00. In addition, the pIC50 at MYLK (setting [1]) is above 5.30.

With `COc1cccc2c1nc(Nc1ccc(CN(C)C)cc1)c1n[nH]cc12` [Example #233, (4-Dimethylaminomethyl-phenyl)-(6-methoxy-2H-pyrazolo[3,4-c]quinolin-4-yl)-amine], the pKi at SYK kinase is above 8.00. At MYLK (setting [1]), the pIC50 is above 5.30.

As for `COc1ccc2nc(Nc3ccc(C(=O)N4CCC5(CC4)OCCO5)cc3)c3n[nH]cc3c2c1` [Example #306, (4-((8-methoxy-2H-pyrazolo[3,4-c]quinolin-4-yl)amino)phenyl)(1,4-dioxa-8-azaspiro[4.5]decan-8-yl)methanone], the pIC50 is 7.00 to 8.00 at LRRK2 (LRRK2 Activites: IC50, 5 nM LRRK2, 10 nM tracer 236, RT 1 h) and above 5.30 at MYLK.

`COc1ccc2nc(Nc3ccc(F)cc3F)c3n[nH]cc3c2c1` [Example #360, N-(2,4-difluorophenyl)-8-methoxy-2H-pyrazolo[3,4-c]quinolin-4-amine]: at MYLK (setting [1]), the pIC50 is above 5.30.

In the case of `COc1cccc2nc(Nc3ccc4c(c3)CN(C)C4)c3[nH]ncc3c12` [Example #352, 9-methoxy-N-(2-methylisoindolin-5-yl)-3H-pyrazolo[3,4-c]quinolin-4-amine], the pIC50 at LRRK2 (setting [2]) was 7.00 to 8.00; at MYLK (setting [1]), above 5.30.

On to `COc1ccc2nc(Nc3ccc(C(N)=O)cc3)c3n[nH]cc3c2c1` [Example #58, 4-(8-Methoxy-2H-pyrazolo[3,4-c]quinolin-4-ylamino)-benzamide], for which the pKi at SYK kinase is 7.00 to 8.00. In addition, at MYLK (setting [1]), the pIC50 is above 5.30.

As to `COc1ccc(Nc2nc3ccc(F)cc3c3cn[nH]c23)cc1OC` [Example #327, N-(3,4-dimethoxyphenyl)-8-fluoro-3H-pyrazolo[3,4-c]quinolin-4-amine], the pKi at SYK kinase was 6.00 to 7.00. The pIC50 at MYLK (setting [1]) was above 5.30.

Consider `CN1CCN(c2ccc(Nc3nc4cc(F)ccc4c4cn[nH]c34)cc2)CC1` [Example #337, 7-fluoro-N-(4-(4-methylpiperazin-1-yl)phenyl)-3H-pyrazolo[3,4-c]quinolin-4-amine], for which the pKi at SYK kinase was 7.00 to 8.00. The pIC50 at MYLK (setting [1]) was above 5.30.

Regarding `Brc1ccc2nc(Nc3ccc4[nH]ncc4c3)c3n[nH]cc3c2c1` [Example #45, (8-Bromo-2H-pyrazolo[3,4-c]quinolin-4-yl)-(1H-indazol-5-yl)-amine], the pKi at SYK kinase was 7.00 to 8.00. The pIC50 at LRRK2 (setting [2]) is 6.00 to 7.00.

In the case of `COc1ccc2nc(Nc3cccc(S(=O)(=O)N4CCOCC4)c3)c3n[nH]cc3c2c1` [Example #349, 8-methoxy-N-(3-(morpholinosulfonyl)phenyl)-2H-pyrazolo[3,4-c]quinolin-4-amine], the pKi on SYK kinase is 6.00 to 7.00. Also, the pIC50 at MYLK (setting [1]) was above 5.30.

`COc1ccc2nc(Nc3ccc4c(c3)N=C(NCCc3ccccc3)CO4)c3n[nH]cc3c2c1` [Example #314, N6-(8-methoxy-2H-pyrazolo[3,4-c]quinolin-4-yl)-N3-phenethyl-2H-benzo[b][1,4]oxazine-3,6-diamine]: the pKi at SYK kinase is 7.00 to 8.00. In addition, the pIC50 on LRRK2 (setting [2]) was 7.00 to 8.00.

Take `COc1cc(Nc2nc3ccccc3c3c[nH]nc23)cc(OC)c1OC` [Example #3, (2H-Pyrazolo[3,4-c]quinolin-4-yl)-(3,4,5-trimethoxy-phenyl)-amine]: the pKi at SYK kinase is 6.00 to 7.00. In addition, the pIC50 on LRRK2 (setting [2]) is 6.00 to 7.00.

Take `COc1ccc2nc(Nc3ccc(Cc4ccncc4)cc3)c3n[nH]cc3c2c1` [Example #161, (8-Methoxy-2H-pyrazolo[3,4-c]quinolin-4-yl)-(4-pyridin-4-ylmethyl-phenyl)-amine]: the pKi at SYK kinase was 7.00 to 8.00. Also, the pIC50 on LRRK2 (setting [2]) was 7.00 to 8.00.

On to `COc1ccc(Nc2nc3ccccc3c3c(C)[nH]nc23)cc1OC` [Example #207, (3,4-Dimethoxy-phenyl)-(1-methyl-2H-pyrazolo[3,4-c]quinolin-4-yl)-amine], for which the pKi at SYK kinase is 7.00 to 8.00. The pIC50 on LRRK2 (setting [2]) is 6.00 to 7.00.

For `COc1cc(Nc2nc3ccc(OC)cc3c3c[nH]nc23)cc(OC)c1` [Example #341, N-(3,5-dimethoxyphenyl)-8-methoxy-2H-pyrazolo[3,4-c]quinolin-4-amine], the pKi at SYK kinase was 6.00 to 7.00. Moreover, at MYLK (setting [1]), the pIC50 was above 5.30.

As to `Cc1cc(Nc2nc3ccc(Br)cc3c3c[nH]nc23)cc2cn[nH]c12` [Example #41, (8-Bromo-2H-pyrazolo[3,4-c]quinolin-4-yl)-(7-methyl-1H-indazol-5-yl)-amine], the pKi at SYK kinase was 7.00 to 8.00. At MYLK (setting [1]), the pIC50 is above 5.30.

As for `COc1ccc2nc(Nc3ccc4c(c3)NCCO4)c3[nH]ncc3c2c1` [Example #109, (3,4-Dihydro-2H-benzo[1,4]oxazin-6-yl)-(8-methoxy-3H-pyrazolo[3,4-c]quinolin-4-yl)-amine], the pKi at SYK kinase was 7.00 to 8.00. On LRRK2 (setting [2]), the pIC50 was 7.00 to 8.00.

The record behind these values is patent publication US9499535B2, “Kinase inhibitors” (ORIGENIS GMBH, priority 2011, dated 2016).
